Measurements reported in patent US10688099B2, “Methods for modulating the amount of RNA transcripts” (PTC Therapeutics, Inc., priority 2013, dated 2020).

Tested on: RNA isoforms in PNN 1-46 SMA type I patient-derived fibroblasts
Test: RNA Abundance Modulation (RNA isoform abundance, iFPM, HiSeq RNA sequencing)
Assay type: cell-based, human
Settings: 3 μM
Method: Cells from a cell line of interest are cultured in conditions sufficient to yield the number of cells capable of generating enough RNA for subsequent sequencing steps. Cells from the tested cell line are contacted with a compound described herein.
To culture said cells, they are seeded, at appropriate concentrations in a volume of media in a cell culture container and incubated for 4, 5, 6, 7, 8, 9, 10, or more hours. A concentrated solution of compound in a vehicle (e.g., DMSO) is then added in sufficient volume to result in the intended final concentration of the compound, for example 100 nM, 500 nM, 1 μM, 5 μM, 10 μM, 15 μM, 20 μM, or more. The cells may also be treated with vehicle alone, as a control. A number of replicates of each concentration or control may be made (e.g., 2 replicates). The cells are then incubated at a constant temperature appropriate for cell culture of the particular cell line (e.g., 37° C.) for 6, 12, 18, 24, 48, or more hours. After incubation, the growth medium is removed and the cells are washed with the appropriate buffer (e.g., PBS). Cells are then removed from adherence to the cell culture container by treatment with a solution containing trypsin, and the trypsin subsequently quenched with the appropriate volume of buffer (e.g., DMEM-FBS). The cells are then pelleted with gentle centrifugation (e.g., ≤90×g centrifugal force) and resuspended in a buffer to lyse the cells for extraction of RNA. The cell lysates may then be frozen (e.g., at −80° C.) or, alternately, may immediately be used in a procedure to purify the RNA (e.g. by use of the RNEASY PLUS® minikit). The RNA from cell lysates is eluted in the appropriate volume of buffer (e.g., RNEASE-FREE H2O®). The resulting purified RNA may then be sequenced (e.g., using RNASeq) or analyzed using a human exon array (e.g., by GENECHIP® human exon array) to determine changes in the RNA levels in those cells treated with compound compared to those cells treated only with DMSO. The purified RNA may also be quantified by other methods known in the art.
Using the RNA data obtained from sequencing, exon array, or other methods, a statistical analysis can reveal changes in the RNA levels of compound-treated compared with control. For example, t-test p-values may be calculated for the data obtained through sequencing and exon array methods in order to compare compound-treated cells to those treated with the DMSO control. […] Analysis of the sequencing and exon array data may then also yield predictions about the cause of the aberrant amount of an RNA transcript in the cells (e.g., perturbation of RNA splicing, RNA transcription, or RNA stability). These predictions may be further confirmed by methods known in the art. For example, RT-PCR and RT-qPCR may be used to confirm the change in amount of RNA transcripts for one or more particular transcripts of interest.
Following the methods described above in Example 1, PNN 1-46 SMA type I patient-derived fibroblasts were treated with 300 nM or 3 μM Compounds 774 and 808 in 0.5% DMSO.
700,000 cells were seeded in 10 mL of medium (DMEM plus 10% FBS) in a T-75 flask. Cells were allowed to attach for at least 4 hrs, after which 50 μL of a 200× compound solution (100% DMSO) was added to each well, and the plate was incubated at 37° C. for 24 hrs.
At the end of the incubation period, the supernatant was removed and the cells where washed with PBS. TrypLE (Invitrogen) express solution was added (e.g. 1.5 mL per one T75 flask). The flasks were incubated for 3 to 5 min at 37° C. The trypsin was then quenched, e.g., by adding 10 mL DMEM-FBS.
Next, the cells were pelleted using gentle centrifugation without exceeding 90×g centrifugal force. The supernatant was removed and the cell pellet was re-suspended in 600 μL RLT buffer (the RLT buffer was supplemented with beta-mercaptoethanol according to the RNeasy protocol manual) by pipetting up and down until the pellet was completely dissolved […]

## CCc1nc(C)cn2nc(-c3cc(=O)n4cc(C5CCN(C)CC5)cc(C)c4n3)cc12 [Compound 774]
TIMP2 AK294290
  L2FC (x + 1): −6.520
  L2abs (Cpd-DMSO): 6.50
  abs (Cpd-DMSO): 91 iFPM
  amp FC (x + 1): 91.79
  ave Cpd: 0 iFPM
TIMP2 BC039613
  FC (x + 1): 0.9284
  L2FC (x + 1): −0.107
  L2abs (Cpd-DMSO): 11.17
  abs (Cpd-DMSO): 2306 iFPM
  amp FC (x + 1): 1.08
  ave Cpd: 29887 iFPM
TIMP2 NM_003255
  FC (x + 1): 0.9585
  L2FC (x + 1): −0.061
  L2abs (Cpd-DMSO): 9.77
  abs (Cpd-DMSO): 876 iFPM
  amp FC (x + 1): 1.04
  ave Cpd: 20235 iFPM
TLK1 AK091975
  FC (x + 1): 0.7110
  L2FC (x + 1): −0.492
  L2abs (Cpd-DMSO): 6.56
  abs (Cpd-DMSO): 95 iFPM
  amp FC (x + 1): 1.41
  ave Cpd: 232 iFPM
TLK1 BX537631
  FC (x + 1): 1.2332
  L2FC (x + 1): 0.302
  L2abs (Cpd-DMSO): 0.14
  abs (Cpd-DMSO): 1 iFPM
  amp FC (x + 1): 1.23
  ave Cpd: 5 iFPM
TLK1 E09283
  FC (x + 1): 1.1041
  L2FC (x + 1): 0.143
  L2abs (Cpd-DMSO): 1.54
  abs (Cpd-DMSO): 3 iFPM
  amp FC (x + 1): 1.10
  ave Cpd: 30 iFPM
TLK1 NM_012290
  FC (x + 1): 1.4535
  L2FC (x + 1): 0.540
  L2abs (Cpd-DMSO): 8.52
  abs (Cpd-DMSO): 367 iFPM
  amp FC (x + 1): 1.45
  ave Cpd: 1174 iFPM
TLK1 NM_001136554
  FC (x + 1): 0.3744
  L2FC (x + 1): −1.417
  L2abs (Cpd-DMSO): 8.77
  abs (Cpd-DMSO): 437 iFPM
  amp FC (x + 1): 2.67
  ave Cpd: 260 iFPM
TLK1 NM_001136555
  FC (x + 1): 4.0350
  L2FC (x + 1): 2.013
  L2abs (Cpd-DMSO): 6.40
  abs (Cpd-DMSO): 84 iFPM
  amp FC (x + 1): 4.04
  ave Cpd: 111 iFPM
TMEM154 NM_152680
  FC (x + 1): 2.2609
  L2FC (x + 1): 1.177
  L2abs (Cpd-DMSO): 8.26
  abs (Cpd-DMSO): 306 iFPM
  amp FC (x + 1): 2.26
  ave Cpd: 548 iFPM
TNS3 NM_022748
  FC (x + 1): 0.1472
  L2FC (x + 1): −2.764
  L2abs (Cpd-DMSO): 9.92
  abs (Cpd-DMSO): 971 iFPM
  amp FC (x + 1): 6.79
  ave Cpd: 167 iFPM
TOMM5 CCDS47968
  FC (x + 1): 0.9090
  L2FC (x + 1): −0.138
  L2abs (Cpd-DMSO): −2.28
  abs (Cpd-DMSO): 0 iFPM
  amp FC (x + 1): 1.10
  ave Cpd: 1 iFPM
TOMM5 CR627326
  FC (x + 1): 0.4244
  L2FC (x + 1): −1.236
  L2abs (Cpd-DMSO): 2.64
  abs (Cpd-DMSO): 6 iFPM
